According to patent US9095565B2, “Methods for treating blood disorders” (Phoenicia Biosciences, Inc., priority 2006, dated 2015):

Legend:
γ globin promoter = assay: β/γ-globin promoter driven reporter gene assay; assay type: cell-based; conditions: Table 2
γ-globin mRNA = γ-globin mRNA by RT-PCR in erythroid colonies cultured from cord blood; assay type: cell-based, human; conditions: for Concentration required: increase in fetal globin mRNA, erythroid colonies from cord blood; for No. of Positive responses: positive cultures/cultures tested
Procedure: γ-globin mRNA was analyzed in control and treated erythroid colonies cultured from cord blood, by RT-PCR.

γ-globin gene reporter = assay: Related study: relative luciferase reporter gene induction; assay type: cell-based
Procedure: (§1) In a related study, the relative luciferase reporter gene induction, γ-globin gene induction, and F cell production was tested for several of the candidate compounds. The relative in vitro γ-globin gene reporter stimulation for the tested compounds was as follows: compound P>M>W=R=Y. The relative in vitro γ-globin gene induction for the tested compounds was as follows: P>R=M>Y>W>. The relative in vitro F-cell production was as follows: W>Y>R>M>P. The relative potency for F-cell production was as follows: R>M>Y>P>W.

γ-globin gene = assay: Related study: relative in vitro γ-globin gene induction; assay type: cell-based
Procedure: as §1

F-cell = assay: Related study: in vitro F cell production; assay type: cell-based
Procedure: as §1

[1] = tested on: cells expressing fetal globin (F-cells); assay: Experiment 1: proportion of F-cells in hematopoietic colonies by FACScan; assay type: cell-based, human; conditions: same low concentrations as for fetal globin mRNA induction
Procedure: (§2) Erythroid burst-forming units (BFU-E) (erythroid progenitors) and colony-forming units granulocyte-macrophage (CFU-GM) (myeloid colonies) were cultured in semi-solid or in two-phase suspension media, with or without hematopoietic growth factors at high levels (e.g., erythropoietin at 3 U/ml) or reduced levels (BFU-E cell proliferation was evaluated by enumeration in colonies developing in the presence of reduced amounts of erythropoietin (0.5 U/ml) rather than 3 U (or 3000 mU)/ml, which is standard for these experimental systems), from cord blood or the peripheral blood of several types of humans. Experiments were carried out on samples derived from 1) β-thalassemia patients who expressed variable levels of fetal globin at baseline (and in untreated control cultures) and represent a variety of potential individual responses, 2) from normal umbilical cord blood samples, which express 40-50% fetal globin at baseline (and in untreated control cultures), 3) from CD34+ cells isolated from normal adult peripheral blood, which expressed low levels of fetal globin in untreated control cultures and at baseline; and 4) from peripheral blood of patients with sickle cell disease who were receiving treatment with hydroxyurea. These biological samples provide a range of potential difficulty in stimulating fetal globin expression in human patients.
Hematopoietic colonies were enumerated with or without (+/−) the test compounds, and compared to colonies which developed in the presence of hematopoietic growth factors alone from the same subject (untreated control colonies), and proportions of cells expressing fetal globin (F-cells) were analyzed by FACScan analysis.

[2] = tested on: Erythroid colonies (BFU-E); assay: Experiment 2: erythroid colonies (BFU-E) cultured from patients with beta thalassemia; assay type: cell-based, human; conditions: optimal panel of growth factors
Procedure: as §2
Erythroid colonies were cultured from patients with beta thalassemia, either without any test compounds (Control), only an optimal panel of hematopoietic growth factors, or with one of the test compounds M, P, T, 2-methyl-1-benzofuran-4-carboxylic acid, V, W, X, Y, AK, AC, or AI. […] Colony numbers were increased above the control cultures (% BFU-E/Control) by anywhere from 25% to 230%. Each of the listed test compounds was tested in at least 5 different patients' blood and the differences were statistically significant.

BFU-E = BFU-E cultured from cord blood; assay type: cell-based, human
Procedure: as §2
In a related study, BFU-E cultured from cord blood, was tested with or without compound M, P, R, T, W, Y, Z, AI, F, or 3-(5-chlorothien-3-yl)acrylic acid.

myeloid colonies = assay: Experiment 3: myeloid colonies in cord blood cultured without added growth factors; assay type: cell-based, human; conditions: no added growth factors
Procedure: as §2
Control colonies were established in cultures with no added growth factors to support myelopoiesis, in Iscove's Modified Dulbecco's Media (IMDM) methylcellulose media with charcoal-absorbed fetal bovine serum, beta mercaptoethanol, BSA.

[3] = Pharmacokinetic profiles in anemic juvenile baboons (plasma levels by HPLC-MS); assay type: in vivo; conditions: 10 mg/kg oral, baboon
Procedure: Juvenile baboons were catheterized with venous and arterial catheters, and were phlebotomized a set amount of blood daily to maintain anemia with a hemoglobin level of 7.0-7.5 g/dl, from a baseline normal hemoglobin level of (12-13 g/dl). Normal saline was infused to replace the amount of blood withdrawn. This degree of phlebotomy exchanges the blood volume every 10-20 days. Following establishment of the stable level of anemia, a test compound was administered once/day, either intravenously or orally, and blood was withdrawn through the arterial catheter for analysis of globin mRNA or for analysis of the test compound in the plasma by HPLC-MS. Pharmacokinetic profiles were established from the plasma levels and oral bioavailability (comparing area under the curve between IV and oral plasma levels) was determined for the test compounds.

fetal globin mRNA = assay: Fetal globin induction in phlebotomized anemic baboons; assay type: in vivo, baboon; conditions: for fetal globin mRNA (% of non-alpha globin): baseline 26%
Procedure: Juvenile baboons were catheterized with venous and arterial catheters, and were phlebotomized a set amount of blood daily to maintain anemia with a hemoglobin level of 7.0-7.5 g/dl, from a baseline normal hemoglobin level of (12-13 g/dl). Normal saline was infused to replace the amount of blood withdrawn. This degree of phlebotomy exchanges the blood volume every 10-20 days.
Fetal globin mRNA was analyzed at baseline anemia before and following administration of test compounds. Globin chain protein synthesis confirmed the mRNA findings.
Following establishment of the stable level of anemia, a test compound was administered once/day, either intravenously or orally, and blood was withdrawn through the arterial catheter for analysis of globin mRNA or for analysis of the test compound in the plasma by HPLC-MS. Pharmacokinetic profiles were established from the plasma levels and oral bioavailability (comparing area under the curve between IV and oral plasma levels) was determined for the test compounds.
In anemic Baboon 5002, baseline fetal globin mRNA, assayed by RNAse protection, was 26% of non-alpha globin. With treatment with compound Y at 5 mg/kg/dose, fetal globin mRNA increased to 48% of non-alpha globin, an 85% increase over the baseline level. Treatment with compound AK at 50 mg/kg induced a 51% fetal globin mRNA increase, a 96% increase over the baseline level. […] The human equivalent dose is 20% of these doses, or 1 mg/kg, 10 mg/kg, or 8 mg/kg respectively. Thus, these 3 compounds are highly suitable for pharmaceutical compositions at doses that human patients can readily tolerate.

[4] = tested on: Erythroid cells cultured from adult blood; assay: Experiment 4: erythroid cells cultured from adult blood CD34+ cells (cell counts, qRT-PCR, HPLC of hemoglobins); assay type: cell-based, human
Procedure: Erythroid cells cultured from adult blood are low-HbF expressing and are the most difficult to alter with regard to globin expression. This experiment analyzed erythroid cells cultured from adult blood in the presence or absence of representative test compounds.
Erythroid cells were generated by culturing purified CD34+ cells in Flt-3 ligand, stem cell factor (SCF) and IL-3 for seven days followed by growth in EPO for 14 days. For treatment, cells were cultured as above in a T75 flask then split into multiple flasks on day 8 and treatment with the test compounds was begun. Compound P or other test compounds were diluted from stock solutions with the microliter volumes of stock added to each culture flask for final working concentrations. Cells were enumerated every two days by hemacytometer count. RNA was harvested from 10^6 cells every two days using RNeasy Plus Mini Kit (Qiagen) and qRT-PCR performed using IQ SybrGreen Supermix on an Opticon Monitor instrument (MJ Research). […] Separation of hemoglobins was performed by cation exchange HPLC using a 35×4.6 mm; […] PolyCAT A column (Nest Group) as described previously by Cheryl Rognerud and Ching-Nan Ou, and outlined by the column manufacturer.
QPCR primers were designed using known sequences for α-globin, β-globin, γ-globin, β-actin and B3PD. Primers were designed to span at least one […].

[5] = tested on: fetal globin gene promoter; assay: Example 8: factor occupancy of globin gene promoters in primary erythroid cells; assay type: cell-based
Source text: This is a selective effect on the fetal (gamma globin) gene promoter, without generalized widespread epistatic effects or any effects on the beta globin promoter, as other agents tend to cause. The transcription factor EKLF and the remodeling complex Brg1 and Pol II became bound to the promoter in association with gene activation. In contrast, there were no effects on the beta globin gene promoter. These compounds therefore produce highly specific activating effects solely on the globin gene promoter which would be beneficial to induce for therapy of the beta globin gene disorders, and provide a targeted molecular activity.

Erythroid colonies = assay: Experiment 6: erythroid colony growth from sickle cell patients receiving hydroxyurea; assay type: cell-based, human
Procedure: Erythroid colonies from the peripheral blood of 4 patients with sickle cell disease who were receiving treatment with Hydroxyurea (HU), a chemotherapeutic agent which suppresses marrow growth and reduces red blood cell production, were cultured alone or with added test compounds M, P, 2-methyl-1-benzofuran-4-carboxylic acid, V, W, Y (racemic mixture) or AI. L-arginine was added as a neutral control, and had no effect on numbers of erythroid colonies.
2-methyl-1-benzofuran-4-carboxylic acid and compound V require additional samples for statistical evaluation, but had positive effects in 3/3 different patients' cultures. These findings indicate that the test compounds stimulate erythroid cell production particularly in conditions of anemia and bone marrow suppression.

## COc1cc(OC)nc(SC(C(=O)O)C(C)C)n1 (racemic) [Compound Y]
γ globin promoter
  % γ globin promoter induction (above untreated control): ** (‘**’ indicates a 100%-200% increase)
γ-globin mRNA
  Concentration required: 5 µM
  No. of Positive responses: 1/3
γ-globin gene reporter
  relative in vitro γ-globin gene reporter stimulation (rank order): P>M>W=R=Y
γ-globin gene
  relative in vitro γ-globin gene induction (rank order): P>R=M>Y>W
F-cell
  relative in vitro F-cell production (rank order): W>Y>R>M>P
  relative potency for F-cell production (rank order): R>M>Y>P>W
[1]
  proportion of F-cells above the percentage in untreated controls: significant increases
[2]
  number of erythroid colonies compared to matched control cultures: increased the number of colonies
BFU-E
  numbers of BFU-E colonies compared to controls: increased numbers of colonies
Myeloid colonies
  production of myeloid colonies compared to untreated control: stimulated production of myeloid colonies
[3]
  initial burst level: does not produce an undesirable high initial burst level
  persistence in plasma: greater than 24 hours
Fetal globin mRNA; Baboon 5002, 5 mg/kg/dose
  increase over the baseline level of fetal globin mRNA: 85%
Fetal globin mRNA; Baboon 5002, 5 mg/kg/dose, RNAse protection
  fetal globin mRNA (% of non-alpha globin): 48%

## CCC(Nc1ncnc2ccccc12)C(=O)O (stereo not shown) [Compound M]
γ globin promoter
  % γ globin promoter induction (above untreated control): ** (‘**’ indicates a 100%-200% increase)
γ-globin mRNA
  Concentration required: 5 µM
  No. of Positive responses: 4/6
γ-globin gene reporter
  relative in vitro γ-globin gene reporter stimulation (rank order): P>M>W=R=Y
γ-globin gene
  relative in vitro γ-globin gene induction (rank order): P>R=M>Y>W
F-cell
  relative in vitro F-cell production (rank order): W>Y>R>M>P
  relative potency for F-cell production (rank order): R>M>Y>P>W
[1]
  proportion of F-cells above the percentage in untreated controls: significant increases
[2]
  number of erythroid colonies compared to matched control cultures: increased the number of colonies
BFU-E
  numbers of BFU-E colonies compared to controls: increased numbers of colonies
Myeloid colonies
  production of myeloid colonies compared to untreated control: stimulated production of myeloid colonies
Fetal globin mRNA; Baboon 5002, 40 mg/kg
  increase over the baseline level of fetal globin mRNA: 257%
  fetal globin mRNA (% of non-alpha globin): 67%

## O=C(O)c1cccc(-c2cc3ccccc3oc2=O)c1 [Compound P]
γ globin promoter
  % γ globin promoter induction (above untreated control): *** (‘***’ indicates an over 200% increase of γ globin promoter induction over untreated controls)
γ-globin mRNA
  Concentration required: 20 µM
  No. of Positive responses: 6/6
γ-globin gene reporter
  relative in vitro γ-globin gene reporter stimulation (rank order): P>M>W=R=Y
γ-globin gene
  relative in vitro γ-globin gene induction (rank order): P>R=M>Y>W
F-cell
  relative in vitro F-cell production (rank order): W>Y>R>M>P
  relative potency for F-cell production (rank order): R>M>Y>P>W
[1]
  proportion of F-cells above the percentage in untreated controls: significant increases
[2]
  number of erythroid colonies compared to matched control cultures: increased the number of colonies
BFU-E
  numbers of BFU-E colonies compared to controls: increased numbers of colonies
[4]; 20 microM
  Cell counts vs cells cultured with erythropoietin alone: increased
[4]; 100 micromolar, one cycle of erythroid differentiation
  increase in expression of fetal globin (Hemoglobin F protein) vs untreated control: 19 fold
[4]; different doses
  production/expression of alpha globin: no effect
[4]; same doses as increases in fetal globin mRNA
  production of beta globin: reciprocal decrease
Fetal globin mRNA; phlebotomized anemic baboon with no baseline fetal globin
  induction of fetal globin (% of globin expression): 7%
Fetal globin mRNA; same baboon, baseline 100% beta globin
  beta globin expression: concommitant reduction
[5]
  EKLF and Brg1 ATPase proteins at the gamma-globin gene promoter: induced recruitment
  effects on the beta globin gene promoter: no effects
  repressor complex of HDAC3, NCoR at the fetal globin gene promoter: displacement of a repressor complex of HDAC3, NCoR

## NC(=O)NO [Hydroxyurea]
Erythroid colonies
  effect on numbers of erythroid colonies compared to control: decreased numbers of erythroid colonies

## N=C(N)NCCC[C@H](N)C(=O)O [L-arginine]
Erythroid colonies
  effect on numbers of erythroid colonies compared to control: no effect
